Assay results published in patent US20250353828A1, “SUBSTITUTED BIARYL ENDOCHIN-LIKE QUINOLONES WITH ENHANCED ANTIPARASITIC ACTIVITY” (Oregon Health & Science University, priority 2022, published 2025).
pIC50: −log10 of the molar value.

Key:
[1] = system: P. falciparum D6 strain (drug sensitive); test: In vitro antiplasmodial activity, SYBR Green I assay, D6 strain; type: cell-based, Plasmodium falciparum; details: Plasmodium falciparum; D6 strain; 72 h incubation; averages of quadruplicate with (95% confidence intervals); read-out: P. falciparum IC50 values, nM D6
Description: (§1) Rationale for Synthesis of a 3-Biaryl Version of ELQ-300. […] All of this information is stored in a database with information relating to chemical structure, physical chemical properties, cross resistance patterns, mammalian cell cytotoxicity, enzyme inhibitor profiles, and synthesis details. […] We employed the SyBr Green assay and the plates were incubated for 72 hours before harvesting^18, 19. […] Stock solutions were freshly prepared in DMSO.
(§2) Plasmodium falciparum Culture. Laboratory strains of P. falciparum were cultured in human erythrocytes by standard methods. The parasites were grown in culture medium with fresh human erythrocytes maintained at 2% hematocrit at 37° C. in low-oxygen conditions (5% O2, 5% CO2, […] balance N2). […] Cultures were maintained at less than 10% parasitemia by transfer of infected cells to fresh erythrocytes and culture medium every 3 or 4 days.
(§3) In vitro drug susceptibility assays. SYBR green I assay. In vitro antiplasmodial activity was assessed using a published SYBR Green I fluorescence-based method. The drugs were added to 96-well plates using 2-fold serial dilutions in complete medium. […] Asynchronous P. falciparum parasites were diluted with uninfected erythrocytes and added to the wells to give a final culture volume of 100 μl at 2% hematocrit and 0.2% parasitemia. […] The parasites were then lysed by adding 100 μl of SYBR green I lysis buffer containing 0.2 μl/ml SYBR green I dye (10,000×) in 20 mM Tris (pH 7.5), 5 mM EDTA, 0.008% (wt/vol) saponin, and 0.08% (vol/vol) Triton X-100. The plates were incubated at room temperature for an hour in the dark. […] If the IC50 value fell outside of the initial tested range then the range was adjusted up or down and the assay was repeated.

[2] = system: P. falciparum Dd2 strain (multidrug resistant); test: microbe, parasite or virus in culture; type: cell-based, Plasmodium falciparum; details: read-out: P. falciparum IC50 values, nM Dd2; Dd2 strain; 72 h incubation; averages of quadruplicate with (95% confidence intervals)
Description: as §1, §2, §3

[3] = system: P. falciparum Tm90-C2B (atovaquone-resistant clinical isolate); test: In vitro antiplasmodial activity, SYBR Green I assay, Tm90-C2B; type: cell-based; details: Plasmodium falciparum; Tm90-C2B strain; 72 h incubation; averages of quadruplicate with (95% confidence intervals); read-out: P. falciparum IC50 values, nM Tm90-C2B
Description: as §1, §2, §3

[4] = system: P. falciparum D1 clone (ELQ-300 resistant); test: microbe, parasite or virus in culture; type: cell-based; details: Plasmodium falciparum, 72 h, read-out: P. falciparum IC50 values, nM D1
[5] = system: P. yoelii (Kenya Strain) blood stage infection in mice; test: 4-day Peters test against murine malaria; type: in vivo; details: P. yoelii in mice, oral gavage in PEG400 on Days 1-4; prodrugs dosed on molar equivalency to parent drug
Description: On Day 5 a drop of blood was taken from the tail and a blood smear was prepared, fixed with methanol, and stained with Giemsa. The operator then examined the stained smear microscopically to determine percent parasitemia. Dosages of 0.0025, 0.005, 0.01, 0.03, 0.1, 0.3, 1.0 and 10 mg/kg/day were used for the experiment. […] In this model animals were inoculated exactly as for the 4-day test on Day 0 however drug was administered only on Day 1 while the operator made smears on Day 5 and again weekly thereafter for animals that remained aparasitemic. Animals that remained aparasitemic out to […] were scored as cures.
In Vivo Efficacy against Murine Malaria. The P. yoelii 4-day test monitors suppression of patent infection in female CF1 mice. The test began with the inoculation (iv) of parasitized erythrocytes (3.5×10^4/P. yoelli) (from a donor animal) on the first day of the experiment (D0). […] Initially the 3-biaryl-ELQs were tested at doses of 0.0025, 0.005, 0.01, 0.03, 0.1, 0.3, 1.0 and 10 mg/kg/day, including a vehicle-only (PEG400) control. After completion of drug treatment, a blood sample was collected (by pricking the tail vein) for determination of parasite burden beginning on the day after the final dose (D5). Percent parasitemia is assessed by direct microscopic analysis of Giemsa-stained blood smears. […] Animals with observable parasitemia following the experiment were euthanized; animals cleared of parasites from the bloodstream were observed daily with assessment of parasitemia performed weekly until day 30, at which point the animal(s) were scored as cured of infection. […] Non-linear regression analysis is used for objective determination of ED50's and ED90's from the accumulated data as well as the Non-Recrudescence Dose (NRD). The 4-day test protocol was reviewed and approved by the local IACUC board at the Portland VA Medical Center. Experiments were performed with 4 mice per group to ensure statistical accuracy.

[6] = system: P. yoelii blood stage infection in mice; test: In vivo single-dose cure against murine malaria; details: lowest single dose that cures all 4 mice; P. yoelii, dose on Day 1; prodrugs dosed on molar equivalency to parent drug
Description: Animals that remained aparasitemic out to […] were scored as cures.
In Vivo Single-Dose Efficacy against Murine Malaria. The effectiveness of selected 3-biarylELQs and prodrugs was assessed vs. the blood stage infection for single dose cures. Mice are infected iv with 3.5×10^4 P. yoelii infected RBCs as described for the 4-day test above. Drug administration occurred on the day after inoculation (Day 1). Test agents were dissolved in PEG-400 and administered ig once. On the 5th day blood films were prepared and % parasitemia was assessed. Animals remaining parasite-free for 30 days after drug administration were considered cured. The initial dosing range was: 0.5, 1, 2.5, 5, 10 mg/kg, including a control. Experiments were performed with 4 mice per group to ensure statistical accuracy. The reported parameter for these studies is the lowest single dose that provides a cure to all 4 animals in the group.

[7] = system: P. falciparum cytochrome bc1 complex; test: biochemical; details: based on enzyme inhibitory activity
Excerpt: Isolation of Plasmodium falciparum Mitochondria and Ubiquinol-Cytochrome c Oxidoreductase Assay.

[8] = HepG2 cytotoxicity, TiterGlo ATP luminescence, galactose medium; type: cell-based, human; details: human
Description: […]. Of course, enhanced potency is desirable only if unaccompanied by enhanced toxicity. […] […]. The incubation period for these experiments was 48 hours.

[9] = molecular target: T1, P. falciparum cytochrome bc1 complex (Plasmodium falciparum, UniProt Q02768); details: data taken from Nilsen et al., 2013 (a) or Frueh et al., 2017 (b); cited from earlier work
T1 construct: endogenous in cells
T1 sequence (Q02768 1-376): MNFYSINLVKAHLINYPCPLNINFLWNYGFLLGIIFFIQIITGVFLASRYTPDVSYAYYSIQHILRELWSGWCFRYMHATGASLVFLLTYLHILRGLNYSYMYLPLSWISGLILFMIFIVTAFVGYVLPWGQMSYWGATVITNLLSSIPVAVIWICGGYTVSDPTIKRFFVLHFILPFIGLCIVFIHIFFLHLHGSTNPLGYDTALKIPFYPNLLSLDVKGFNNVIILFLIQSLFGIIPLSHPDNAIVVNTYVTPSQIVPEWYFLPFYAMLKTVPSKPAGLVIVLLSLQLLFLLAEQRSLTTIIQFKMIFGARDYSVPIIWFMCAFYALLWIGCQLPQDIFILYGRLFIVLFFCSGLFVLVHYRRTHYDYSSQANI

[10] = molecular target: T2, human liver cytochrome bc1 complex (Homo sapiens, UniProt P00156); details: data taken from Nilsen et al., 2013 (a) or Frueh et al., 2017 (b); cited from earlier work
T2 construct: human host cytochrome bc1 complex isolated from human liver tissue; from tissue; host or cells: human liver tissue

## COc1cc2[nH]c(C)c(-c3ccc(Oc4ccc(OC(F)(F)F)cc4)cc3)c(=O)c2cc1Cl [ELQ-300, reference compound]
[1]
  IC50: 3.3 nM
[2]
  IC50: 4.2 nM
[3]
  IC50: 2.5 nM
[4]
  IC50: 168 nM
[5]
  4-day Peters Test Results ED90: 0.06 mg/kg/day
  4-day Peters Test Results NRD (non-recrudescence dose): 1.0 mg/kg/day
[6]
  Single dose cure: >25 mg/kg/day
[7]
  Selectivity Index Human/Pf cyt. bc1: ≥18,000
[8]
  EC50 at 48 h: > 10000 nM
[9]
  pIC50: 9.25
[10]
  pIC50: < 5.00
